# From patent US10952992B2, “Methods of treating intraocular pressure with activators of Tie-2” (Aerpio Pharmaceuticals, Inc., priority 2015, dated 2021)
# Values joined by “and” are separate entries in the source; they are usually repeats but may differ in a detail not shown here. Equal values may be shown once.
# Test system: intraocular pressure in normotensive New Zealand White rabbits
# Assay: Example 3 intraocular pressure after repeated topical and subcutaneous administration (pneumotonometer)
# Format: in vivo
# Set-up: IOP, individual animal / IOP, group Average: unit not given here
# Experimental: To measure the tolerability and effect of Compound 1 (sodium salt) on intraocular pressure following repeated topical and subcutaneous administration, normotensive New Zealand White rabbits were treated with Compound 1 (sodium salt). Animals were acclimated 1 to 2 times per day to the intraocular pressure (IOP) measurement procedures prior to initiation of the study to determine baseline IOP levels. IOP acclimation was performed in the two weeks prior to study start for a total of 5 days. Animals with unacceptable IOP values were excluded from the study. Prior to taking all IOP measurements, 1 to 2 drops of a 0.5% proparacaine solution were applied to the eye as a topical anesthetic. OP measurements were performed with a pneumotonometer. Test and control formulations were administered to the animals once or twice daily topically into both eyes or subcutaneously starting on Day 1 according to TABLE 20 and TABLE 21 below. PM dosing, where applicable, was performed ˜8 hours after AM dosing. IOP measurements were performed twice (AM and PM) at baseline (prior to the start of dosing), twice (AM and PM) on Days 1 and 7, and once daily (AM) on Days 2-6 and Day 8. Prior to taking all IOP measurements, 1 to 2 drops of a 0.5% proparacaine solution were applied to the eye as a topical anesthetic. IOP measurements were performed with a pneumotonometer. AM IOP measurements were performed 2 hours after AM dosing; the only exceptions were Day 8 AM measurements, which were performed 24 hours after the final dose. PM IOP measurements were performed ˜5 hours (baseline and Day 1) or ˜4 hours (Day 7) after AM IOP measurements, prior to PM dosing, with at least 15 minutes elapsing between anesthetic application for PM IOP measurements and PM dosing. The final round of slit-lamp examinations was performed on Day 8.
# [1] = Group 2: 0.45 mg/eye topical sodium salt BID, Day 1, AM, OD
# [2] = Group 2: 0.45 mg/eye topical sodium salt BID, Day 1, AM, OS
# [3] = Group 2: 0.45 mg/eye topical sodium salt BID, Day 1, PM, OD
# [4] = Group 2: 0.45 mg/eye topical sodium salt BID, Day 1, PM, OS
# [5] = Group 2: 0.45 mg/eye topical sodium salt BID, Day 2, AM, OD
# [6] = Group 2: 0.45 mg/eye topical sodium salt BID, Day 2, AM, OS
# [7] = Group 2: 0.45 mg/eye topical sodium salt BID, Day 3, AM, OD
# [8] = Group 2: 0.45 mg/eye topical sodium salt BID, Day 3, AM, OS
# [9] = Group 2: 0.45 mg/eye topical sodium salt BID, Day 4, AM, OD
# [10] = Group 2: 0.45 mg/eye topical sodium salt BID, Day 4, AM, OS
# [11] = Group 2: 0.45 mg/eye topical sodium salt BID, Day 5, AM, OD
# [12] = Group 2: 0.45 mg/eye topical sodium salt BID, Day 5, AM, OS
# [13] = Group 3: 1.2 mg/eye topical sodium salt BID, Day 1, AM, OD
# [14] = Group 3: 1.2 mg/eye topical sodium salt BID, Day 1, AM, OS
# [15] = Group 3: 1.2 mg/eye topical sodium salt BID, Day 1, PM, OD
# [16] = Group 3: 1.2 mg/eye topical sodium salt BID, Day 1, PM, OS
# [17] = Group 3: 1.2 mg/eye topical sodium salt BID, Day 2, AM, OD
# [18] = Group 3: 1.2 mg/eye topical sodium salt BID, Day 2, AM, OS
# [19] = Group 3: 1.2 mg/eye topical sodium salt BID, Day 3, AM, OD
# [20] = Group 3: 1.2 mg/eye topical sodium salt BID, Day 3, AM, OS
# [21] = Group 3: 1.2 mg/eye topical sodium salt BID, Day 4, AM, OD
# [22] = Group 3: 1.2 mg/eye topical sodium salt BID, Day 4, AM, OS
# [23] = Group 3: 1.2 mg/eye topical sodium salt BID, Day 5, AM, OD
# [24] = Group 3: 1.2 mg/eye topical sodium salt BID, Day 5, AM, OS
smiles,measurement,setting,value
COC(=O)N[C@@H](Cc1ccccc1)C(=O)N[C@@H](Cc1ccc(NS(=O)(=O)O)cc1)c1csc(-c2cccs2)n1 [Compound 1],"IOP, group Average",[1],22.1
same,"IOP, individual animal",[1],20.3 and 23.7 and 24.0 and 20.7 and 21.7
same,"IOP, group Average",[2],23.3
same,"IOP, individual animal",[2],20.7 and 23.3 (2×) and 25.2 and 23.8
same,"IOP, group Average",[3],25.5
same,"IOP, individual animal",[3],24.8 (2×) and 29.5 and 22.0 and 26.2
same,"IOP, group Average",[4],26.1
same,"IOP, individual animal",[4],24.8 and 24.2 and 28.8 and 25.3 and 27.2
same,"IOP, group Average",[5],21.9
same,"IOP, individual animal",[5],22.0 and 22.7 and 25.0 and 18.3 and 21.7
same,"IOP, group Average",[6],22.2
same,"IOP, individual animal",[6],21.8 and 22.3 and 24.3 and 20.8 and 21.5
same,"IOP, group Average",[7],24.0
same,"IOP, individual animal",[7],25.0 and 24.2 and 26.0 and 20.8 and 23.8
same,"IOP, group Average",[8],24.5
same,"IOP, individual animal",[8],25.3 and 23.5 and 26.0 and 23.0 and 24.5
same,"IOP, group Average",[9],23.9
same,"IOP, individual animal",[9],23.8 and 22.0 and 26.7 and 21.3 and 25.7
same,"IOP, group Average",[10],24.3
same,"IOP, individual animal",[10],23.0 and 22.7 and 26.3 and 23.5 and 26.2
same,"IOP, group Average",[11],25.2
same,"IOP, individual animal",[11],28.8 and 22.8 and 28.0 and 20.7 and 25.7
same,"IOP, group Average",[12],26.5
same,"IOP, individual animal",[12],28.8 and 25.0 and 28.0 and 24.2 and 26.3
same,"IOP, group Average","Group 2: 0.45 mg/eye topical sodium salt BID, Day 6, AM, OD",25.5
same,"IOP, group Average","Group 2: 0.45 mg/eye topical sodium salt BID, Day 6, AM, OS",25.4
same,"IOP, group Average","Group 2: 0.45 mg/eye topical sodium salt BID, Day 7, AM, OD",23.7
same,"IOP, group Average","Group 2: 0.45 mg/eye topical sodium salt BID, Day 7, AM, OS",24.5
same,"IOP, group Average","Group 2: 0.45 mg/eye topical sodium salt BID, Day 7, PM, OD",25.1
same,"IOP, group Average","Group 2: 0.45 mg/eye topical sodium salt BID, Day 7, PM, OS",25.6
same,"IOP, group Average","Group 2: 0.45 mg/eye topical sodium salt BID, Day 8, AM (24 hours after final dose), OD",24.9
same,"IOP, group Average","Group 2: 0.45 mg/eye topical sodium salt BID, Day 8, AM (24 hours after final dose), OS",25.1
same,"IOP, group Average",[13],22.0
same,"IOP, individual animal",[13],23.2 and 20.7 and 24.0
same,"IOP, group Average",[14],23.2
same,"IOP, individual animal",[14],23.8 and 23.0 and 24.7
same,"IOP, group Average",[15],24.1
same,"IOP, individual animal",[15],23.8 and 22.7 and 24.7
same,"IOP, group Average",[16],24.9
same,"IOP, individual animal",[16],24.5 and 23.7 and 26.8
same,"IOP, group Average",[17],20.8
same,"IOP, individual animal",[17],17.5 and 18.5 and 24.3
same,"IOP, group Average",[18],21.2
same,"IOP, individual animal",[18],19.3 and 20.2 and 24.0
same,"IOP, group Average",[19],20.7
same,"IOP, individual animal",[19],19.2 and 20.0 and 23.0
same,"IOP, group Average",[20],21.2
same,"IOP, individual animal",[20],20.0 and 20.8 and 22.7
same,"IOP, group Average",[21],22.8
same,"IOP, individual animal",[21],23.2 and 19.8 and 23.8 and 24.8
same,"IOP, group Average",[22],23.2
same,"IOP, individual animal",[22],23.3 and 21.7 and 24.2 and 24.5
same,"IOP, group Average",[23],21.5
same,"IOP, individual animal",[23],21.5 and 18.8 and 22.3 and 21.2
same,"IOP, group Average",[24],22.0
same,"IOP, individual animal",[24],22.3 and 19.8 and 23.5 and 20.7
same,"IOP, group Average","Group 3: 1.2 mg/eye topical sodium salt BID, Day 6, AM, OD",24.2
same,"IOP, group Average","Group 3: 1.2 mg/eye topical sodium salt BID, Day 6, AM, OS",24.7
same,"IOP, group Average","Group 3: 1.2 mg/eye topical sodium salt BID, Day 7, AM, OD",21.3
same,"IOP, group Average","Group 3: 1.2 mg/eye topical sodium salt BID, Day 7, AM, OS",22.0
same,"IOP, group Average","Group 3: 1.2 mg/eye topical sodium salt BID, Day 7, PM, OD",23.7
same,"IOP, group Average","Group 3: 1.2 mg/eye topical sodium salt BID, Day 7, PM, OS",24.2
same,"IOP, group Average","Group 3: 1.2 mg/eye topical sodium salt BID, Day 8, AM (24 hours after final dose), OD",23.4
same,"IOP, group Average","Group 3: 1.2 mg/eye topical sodium salt BID, Day 8, AM (24 hours after final dose), OS",23.9
same,"IOP, group Average","Group 4: 1.2 mg/eye topical sodium salt QD, Day 1, AM, OD",21.2
same,"IOP, group Average","Group 4: 1.2 mg/eye topical sodium salt QD, Day 1, AM, OS",21.4
same,"IOP, group Average","Group 4: 1.2 mg/eye topical sodium salt QD, Day 1, PM, OD",23.1
same,"IOP, group Average","Group 4: 1.2 mg/eye topical sodium salt QD, Day 1, PM, OS",23.2
same,"IOP, group Average","Group 4: 1.2 mg/eye topical sodium salt QD, Day 2, AM, OD",20.0
same,"IOP, group Average","Group 4: 1.2 mg/eye topical sodium salt QD, Day 2, AM, OS",20.1
same,"IOP, group Average","Group 4: 1.2 mg/eye topical sodium salt QD, Day 3, AM, OD",20.8
same,"IOP, group Average","Group 4: 1.2 mg/eye topical sodium salt QD, Day 3, AM, OS",20.9
same,"IOP, group Average","Group 4: 1.2 mg/eye topical sodium salt QD, Day 4, AM, OD",21.6
same,"IOP, group Average","Group 4: 1.2 mg/eye topical sodium salt QD, Day 4, AM, OS",22.6
same,"IOP, group Average","Group 4: 1.2 mg/eye topical sodium salt QD, Day 5, AM, OD",21.0
same,"IOP, group Average","Group 4: 1.2 mg/eye topical sodium salt QD, Day 5, AM, OS",21.2
same,"IOP, group Average","Group 4: 1.2 mg/eye topical sodium salt QD, Day 6, AM, OD",22.5
same,"IOP, group Average","Group 4: 1.2 mg/eye topical sodium salt QD, Day 6, AM, OS",23.2
same,"IOP, group Average","Group 4: 1.2 mg/eye topical sodium salt QD, Day 7, AM, OD",22.6
same,"IOP, group Average","Group 4: 1.2 mg/eye topical sodium salt QD, Day 7, AM, OS",23.0
same,"IOP, group Average","Group 4: 1.2 mg/eye topical sodium salt QD, Day 7, PM, OD",24.6
same,"IOP, group Average","Group 4: 1.2 mg/eye topical sodium salt QD, Day 7, PM, OS",24.7
same,"IOP, group Average","Group 4: 1.2 mg/eye topical sodium salt QD, Day 8, AM (24 hours after final dose), OD",22.7
same,"IOP, group Average","Group 4: 1.2 mg/eye topical sodium salt QD, Day 8, AM (24 hours after final dose), OS",22.8
same,"IOP, group Average","Group 5: 10 mg/kg subcutaneous sodium salt BID, Day 1, AM, OD",22.3
same,"IOP, group Average","Group 5: 10 mg/kg subcutaneous sodium salt BID, Day 1, AM, OS",23.6
same,"IOP, group Average","Group 5: 10 mg/kg subcutaneous sodium salt BID, Day 1, PM, OD",23.3
same,"IOP, group Average","Group 5: 10 mg/kg subcutaneous sodium salt BID, Day 1, PM, OS",23.6
same,"IOP, group Average","Group 5: 10 mg/kg subcutaneous sodium salt BID, Day 2, AM, OD",21.5
same,"IOP, group Average","Group 5: 10 mg/kg subcutaneous sodium salt BID, Day 2, AM, OS",21.7
same,"IOP, group Average","Group 5: 10 mg/kg subcutaneous sodium salt BID, Day 3, AM, OD",20.7
same,"IOP, group Average","Group 5: 10 mg/kg subcutaneous sodium salt BID, Day 3, AM, OS",21.3
same,"IOP, group Average","Group 5: 10 mg/kg subcutaneous sodium salt BID, Day 4, AM, OD",21.9
same,"IOP, group Average","Group 5: 10 mg/kg subcutaneous sodium salt BID, Day 4, AM, OS",22.2
same,"IOP, group Average","Group 5: 10 mg/kg subcutaneous sodium salt BID, Day 5, AM, OD",22.4
same,"IOP, group Average","Group 5: 10 mg/kg subcutaneous sodium salt BID, Day 5, AM, OS",23.4
same,"IOP, group Average","Group 5: 10 mg/kg subcutaneous sodium salt BID, Day 6, AM, OD",24.5
same,"IOP, group Average","Group 5: 10 mg/kg subcutaneous sodium salt BID, Day 6, AM, OS",25.0
same,"IOP, group Average","Group 5: 10 mg/kg subcutaneous sodium salt BID, Day 7, AM, OD",23.9
same,"IOP, group Average","Group 5: 10 mg/kg subcutaneous sodium salt BID, Day 7, AM, OS",23.9
same,"IOP, group Average","Group 5: 10 mg/kg subcutaneous sodium salt BID, Day 7, PM, OD",24.1
same,"IOP, group Average","Group 5: 10 mg/kg subcutaneous sodium salt BID, Day 7, PM, OS",24.3
same,"IOP, group Average","Group 5: 10 mg/kg subcutaneous sodium salt BID, Day 8, AM (24 hours after final dose), OD",24.5
same,"IOP, group Average","Group 5: 10 mg/kg subcutaneous sodium salt BID, Day 8, AM (24 hours after final dose), OS",24.0
